Assay results: patent US6812221B2, “FGF-affinity chromatography” (The Texas A&M University System, priority 2000, dated 2004)
“Also recorded” adds a separate entry of the source.

Assays:
[1] = cited from earlier work
[2] = test system: factor Xa; details: determined against a low molecular weight heparin (Toida et al. 1996); cited from earlier work
[3] = target: T1, FGF7 (Rattus norvegicus, UniProt Q02195); assay: Protease (pronase) protection assay with 125I-FGF7; type: biochemical; details: 150 ng pronase, overnight 37° C., SDS-PAGE/autoradiography
T1 construct: GST (N, cleaved yes); made in house; host or cells: bacteria (E. coli)
T1 sequence (Q02195 55-194): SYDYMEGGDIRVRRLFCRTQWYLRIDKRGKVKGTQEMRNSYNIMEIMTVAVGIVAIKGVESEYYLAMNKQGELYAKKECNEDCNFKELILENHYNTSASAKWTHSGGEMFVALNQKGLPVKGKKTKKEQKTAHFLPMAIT
Protocol: Interaction of Heparin and Oligosaccharides with FGF. The antithrombin-binding decasaccharide (10-mer) was prepared, purified to homogeneity (28) and has the structure ΔUAp2S(1→4)-α-D-GlcNpS6S(1→4)-α-L-IdoAp(1→4)-α-D-GlcNpAc6S(1→4)-β-D-GlcAp(1→4)-α-D-GlcNpS3S6S(1→4)-α-L-IdoAp2S(1→4)-α-D-GlcNpS6S(1→4)-α-L-IdoAp2S(1→4)-α-D-GlcNpS6S. The tetradecasaccharide (14-mer) was prepared in >90% purity and characterized by multidimensional NMR spectroscopy (Toida et al. 1996). While the saccharide composition and the presence of an antithrombin-binding site pentasaccharide sequence could be confirmed, the precise placement of this sequence within the tetradecasaccharide could not be elucidated. The sequence was ΔUAp2S(1→4)-α-D-GlcNpS6S (1→4)-α-L-IdoAp2S(1→]n4)-α-D-GlcNpS6S(1→4)-α-LIdoAp(1→4)-α-D-GlcNpAc6S(1→4)-β-D-GlcAp(1→4)-α-D-GlcNpS3S6S(1→4)-α-L-IdoAp2S(1→[4)-α-D-GlcNpS6S(1→4)-α-L-IdoAp2S(1 43 ]m4)-α-D-GlcNS6S where n+m=3. The anti-factor Xa amydolytic activity of the hexasaccharide (6-mer), decasaccharide (10-mer) and tetradecasaccharide (14-mer) were 0, 3200 and 5800 units/mg, respectively, as determined against a low molecular weight heparin (Toida et al. 1996). Heparin was fractionated by antithrombin affinity chromatography (Kan et al. 1999). […] After incubation overnight at 37° C., SDS-PAGE and autoradiography were employed to quantify the remaining FGF. […]

[4] = Heparin affinity chromatography / heparin binding
Protocol: FIG. 1. Intact heparin-binding in the GST-FGF7 fusion product. Pure 200 μg GST-FGF7 and 10 ng ^125I-FGF7 (3×10^6 cpm) was mixed and subjected to heparin affinity chromatography on Pharmacia FPLC system. The GST-FGF7 was detected as a major peak (solid trace) by absorbance at 280 nm.
When fused at the N-terminal of FGF7 with a highly soluble and productive partner, Glutathione-S-transferase (GST), FGF7 was produced in bacteria at about 3.2 mg/ml yield with retained biological activity. Expressing alone has barely detectable level by immuno-reaction. Pure fusion protein was obtained by sequential chromatography on Glutathione (GSH) and Heparin affinity matrix (Luo et al. 1998, Lu et al. 1999, Jang et al. 1997). This is consistent with FGF7 crystal structure, which shown that the N-terminal of FGF7 is flexible and outside the compact core structure, and heparin-binding domain is apart from the flexible N-terminal. FGF7 itself was released by simply trypsin digestion that mimics an in vivo cleavage event (Luo et al. 1998, Lu et al. 1999, Jang et al. 1997).

[5] = test system: mouse keratinocytes (MK); assay: Mitogenic activity in cultured mouse keratinocytes (MK); type: cell-based; details: cells in culture
Protocol: (§1) Finally, the recovery and activity of purified ^54Ser-FGF7 was tested after the removal of the GST portion by trypsin treatment from the heparin-immobilized GST-FGF7 recovered under the improved conditions employing 10 mM MgCl2 and the BL21 (DE3) pLysS strain. […] Results indicated a yield of pure ^54Ser-FGF7 of 4.8±0.5 mg per liter per OD600, which on a molar basis represents an average yield of 70 percent from the purified GST-FGF7 product.

[6] = test system: Factor IIa; assay: Neutralization assay, anti-Factor IIa activity of heparin; type: biochemical; details: 0.9M NaCl eluted 6000 Da heparin fractions
Protocol: (§2) FIG. 4. Neutralization of anticoagulant activity of 0.9M NaCl eluted 6000 Da heparin (Sigma) fractions from GST-FGF7 column (closed squares) or Antithrombin column (closed triangles) by FGF7. a. 0.3, 1, 3, 10, 30 ug/ml FGF7 was used to neutralize anti-Factor Xa activity of 0.9M elute. b. 0.3, 1, 3, 10, 30 μg/ml FGF7 was used to neutralize anti-Factor IIa activity. The activity was expressed as percentage of Factor Xa or IIa activity in the presence of Antithrombin and FGF7, but absence of any heparin, subtracted by the remaining activity without FGF7 addition. […] Data represent average of at least three separate experiments.
(§3) Neutralization assay. 10 μl 1 μg/ml 0.9 M high affinity FGF7 or Antithrombin bound 6000 Da heparin (final concentration 100 ng/ml) (Sigma, St. Louis) and 10 μl various concentration of FGF7 were incubated with 10 μl 10 μg/ml Antithrombin solution. The rest of the assay was essentially followed the anti-Factor Xa or anti-Factor IIa assay described above. The activity was expressed as percentage of Factor Xa or IIa activity in the presence of Antithrombin and FGF7, but absence of any heparin, subtracted by the remaining activity without FGF7 addition.

[7] = test system: factor Xa; assay: Neutralization assay, anti-Factor Xa activity of heparin; type: biochemical; details: 0.9M NaCl eluted 6000 Da heparin fractions
Protocol: as §2, §3

[8] = target: T2, FGFR2111b (Homo sapiens, UniProt P21802); assay: Binding to FGFR complex on the surface of insect cells
T2 construct: expressed in transfected cells; host or cells: insect cells
Protocol: as §1

T2 sequence (P21802 22-822 isoform P21802-3 limits assumed): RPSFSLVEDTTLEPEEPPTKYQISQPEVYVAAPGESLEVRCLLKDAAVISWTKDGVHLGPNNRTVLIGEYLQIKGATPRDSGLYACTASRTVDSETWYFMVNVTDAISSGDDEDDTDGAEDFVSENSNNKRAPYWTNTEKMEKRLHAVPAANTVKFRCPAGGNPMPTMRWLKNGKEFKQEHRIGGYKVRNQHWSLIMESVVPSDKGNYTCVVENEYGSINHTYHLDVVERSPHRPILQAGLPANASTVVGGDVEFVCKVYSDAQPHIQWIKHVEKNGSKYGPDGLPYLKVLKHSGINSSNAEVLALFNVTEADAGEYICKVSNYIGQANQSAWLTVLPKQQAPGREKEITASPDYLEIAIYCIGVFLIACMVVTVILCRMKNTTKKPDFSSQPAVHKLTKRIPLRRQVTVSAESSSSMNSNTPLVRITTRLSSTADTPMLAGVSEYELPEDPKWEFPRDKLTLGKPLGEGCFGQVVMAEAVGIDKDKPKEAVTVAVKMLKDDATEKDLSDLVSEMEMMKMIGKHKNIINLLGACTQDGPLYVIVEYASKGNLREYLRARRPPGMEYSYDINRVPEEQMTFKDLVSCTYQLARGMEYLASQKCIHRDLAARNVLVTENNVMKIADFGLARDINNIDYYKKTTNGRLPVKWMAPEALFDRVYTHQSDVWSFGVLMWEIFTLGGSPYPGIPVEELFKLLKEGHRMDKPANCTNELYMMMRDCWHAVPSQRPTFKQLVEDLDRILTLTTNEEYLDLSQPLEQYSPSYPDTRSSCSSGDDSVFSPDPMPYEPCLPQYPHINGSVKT

Substance: heparin
- patients developing clinically significant osteoporosis ([1]; human, in vivo): half
- patients with thrombocytopenia persisting for the duration of therapy ([1]; human, in vivo): approximately 5%

Substance: protamine
- incidence of mild reactions ([1]; use of protamine in patients): ≤ 16%

Substance: ΔUAp2S(1→4)-α-D-GlcNpS6S (1→4)-α-L-IdoAp2S(1→]n4)-α-D-GlcNpS6S(1→4)-α-LIdoAp(1→4)-α-D-GlcNpAc6S(1→4)-β-D-GlcAp(1→4)-α-D-GlcNpS3S6S(1→4)-α-L-IdoAp2S(1→[4)-α-D-GlcNpS6S(1→4)-α-L-IdoAp2S(1 43 ]m4)-α-D-GlcNS6S where n+m=3 [tetradecasaccharide (14-mer)]
- anti-factor Xa amydolytic activity [2]: 5800 units/mg
- protection of FGF7 against protease [3]: able to protect

Substance: PF4: Heparin-binding platelet factor 4, proposed scavenger for neutralizing the anticoagulant effect
- adverse effect of administration to patients ([1]; humans (U.S. Pat. No. 5,801,063)): serious granulocytopenia

Substance: GST-FGF7: fusion protein Glutathione-S-Transferase-Fibroblast Growth Factor 7, SEQ ID NO.4
- heparin binding [4]: retain affinity for heparin similar to the unfused products; also recorded: fully active
- sodium chloride concentration of elution from heparin affinity column ([4]; heparin affinity chromatography, FPLC (FIG. 1)): about 0.9 M
- mitogenic activity [5]: Neither GST-FGF1 nor GST-FGF7 bind and activate the FGFR kinase complex and exhibit mitogenic activity; also recorded: inactive
- neutralization of anti-Factor IIa activity compared with FGF7 [6]: same neutralization effects as FGF7
- neutralization of anti-Factor Xa activity compared with FGF7 [7]: same neutralization effects as FGF7
- binding to / activation of the FGFR complex [8]: Neither GST-FGF1 nor GST-FGF7 bind and activate the FGFR kinase complex; also recorded: inactive

Substance: GST-FGF1: human FGF1 fused to Glutathione-S-Transferase (GST)
- heparin binding [4]: retain affinity for heparin similar to the unfused products
- mitogenic activity [5]: Neither GST-FGF1 nor GST-FGF7 bind and activate the FGFR kinase complex and exhibit mitogenic activity
- binding to / activation of the FGFR complex [8]: Neither GST-FGF1 nor GST-FGF7 bind and activate the FGFR kinase complex

Substance: ΔUAp2S(1→4)-α-D-GlcNpS6S(1→4)-α-L-IdoAp(1→4)-α-D-GlcNpAc6S(1→4)-β-D-GlcAp(1→4)-α-D-GlcNpS3S6S(1→4)-α-L-IdoAp2S(1→4)-α-D-GlcNpS6S(1→4)-α-L-IdoAp2S(1→4)-α-D-GlcNpS6S [decasaccharide (10-mer)]
- anti-factor Xa amydolytic activity [2]: 3200 units/mg
- protection of FGF7 against protease [3]: able to protect
